Laboratory results from patent US9174948B2, “Desferrithiocin polyether analogues” (University of Florida Research Foundation, Inc., priority 2007, dated 2015).
Read-outs that look alike come from different tables or passages of the source.

Columns and labels:
[1] = system: Non-Iron-Overloaded Rodents; test: Chelator-induced iron clearance in non-iron-overloaded, bile duct-cannulated rats; format: in vivo, rat (male Sprague-Dawley); conditions: po, 300 μmol/kg
Source text: Chelator-Induced Iron Clearance in Non-Iron-Overloaded Rodents. […] J. Med. Chem. 2006, 49, 2772-2783]. Recall that iron-clearing efficiency (ICE) is defined as (net iron excretion)/(total iron-binding capacity of the chelator), expressed as a percent. The relative ICE values of compounds 1 and 2 were in keeping with their log Papp values: the more lipophilic, the larger log Papp, the more efficient the chelator. […] However, the ICE trend was in keeping with the biliary ferrokinetics (FIG. 3) and liver concentration of the chelators, for example, 3>1 (FIG. 4).
Cannulation of Bile Duct in Non-Iron-Overloaded Rats has been described previously. […]. […] The urine sample(s) was taken at 24 h intervals. Sample collection and handling are as previously described [Bergeron, R. J., Streiff, R. R., Creary, E. A., Daniels, R. D., Jr., King, W., Luchetta, G., Wiegand, J., Moerker, T. and Peter, H. H. A Comparative Study of the Iron-Clearing Properties of Desferrithiocin Analogues with Desferrioxamine B in a Cebus Monkey Model. Blood 1993, 81, 2166-2173; Bergeron, R. J., Streiff, R. R., Wiegand, J., Vinson, J. R. T., Luchetta, G., Evans, K. M., Peter, H. and Jenny, H.-B. A Comparative Evaluation of Iron Clearance Models. Ann. N.Y. Acad. Sci. 1990, 612, 378-393].
(§1) In the iron-clearing experiments, the rats were given a single 300 μmol/kg dose of drugs 1-9 orally (po).
(§2) J. Med. Chem. 1999, 42, 2432-2440].

[2] = system: Iron-Overloaded Cebus apella Primates; conditions: Cebus apella, po, 150 μmol/kg, historical data, cited from earlier work
[3] = system: Non-Iron-Overloaded Rodents; conditions: rats, po, 300 μmol/kg, historical data, cited from earlier work
[4] = system: Iron-Overloaded Cebus apella Primates; test: Chelator-induced iron clearance in iron-overloaded Cebus apella primates; format: in vivo; conditions: po, 75 μmol/kg
Source text: Chelator-Induced Iron Clearance in Iron-Overloaded Cebus apella Primates. The iron-clearance data for all three sets of ligands are presented (Table 2). […] J. Med. Chem. 2003, 46, 1470-1477]>1 (16.8±7.2%) [Bergeron, R. J., Wiegand, J., McManis, J. S., McCosar, B. H., Weimar, W. R., Brittenham, G. M. and Smith, R. E. Effects of C-4 Stereochemistry and C-4′ Hydroxylation on the Iron Clearing Efficiency and Toxicity of Desferrithiocin Analogues. J. Med. Chem. 1999, 42, 2432-2440], the increase is not significant. Although (S)-4′-(HO)-DADFT-PE (3) is the least lipophilic chelator in the 1-3 series, it is just as efficient (ICE, 25.4±7.4%) [Bergeron, R. J., Wiegand, J., McManis, J. S., Vinson, J. R. T., Yao, H., Bharti, N. and Rocca, J. R. (S)-4,5-Dihydro-2-(2-hydroxy-4-hydroxyphenyl)-4-methyl-4-thiazolecarboxylic Acid Polyethers: A Solution to Nephrotoxicity.
The monkeys (3.5-4 kg) were iron overloaded with intravenous iron dextran as specified in earlier publications to provide about 500 mg of iron per kg of body weight [Bergeron, R. J., Streiff, R. R., Wiegand, J., Luchetta, G., Creary, E. A. and Peter, H. H. A Comparison of the Iron-Clearing Properties of 1,2-Dimethyl-3-hydroxypyrid-4-one, 1,2-Diethyl-3-hydroxypyrid-4-one, and Deferoxamine. Blood 1992, 79, 1882-1890]; the serum transferrin iron saturation rose to between 70 and 80%. At least 20 half-lives, 60 d [Wood, J. K., Milner, P. F. and Pathak, U. N. The Metabolism of Iron-dextran Given as a Total-dose Infusion to Iron Deficient Jamaican Subjects. Br. J. Haematol. 1968, 14, 119-129], elapsed before any of the animals were used in experiments evaluating iron-chelating agents.
Fecal and urine samples were collected at 24-h intervals and processed as described previously [Bergeron, R. J., Streiff, R. R., Creary, E. A., Daniels, R. D., Jr., King, W., Luchetta, G., Wiegand, J., Moerker, T. and Peter, H. H. A Comparative Study of the Iron-Clearing Properties of Desferrithiocin Analogues with Desferrioxamine B in a Cebus Monkey Model. Blood 1993, 81, 2166-2173; Bergeron, R. J., Streiff, R. R., Wiegand, J., Vinson, J. R. T., Luchetta, G., Evans, K. M., Peter, H. and Jenny, H.-B. A Comparative Evaluation of Iron Clearance Models. Ann. N.Y. Acad. Sci. 1990, 612, 378-393; Bergeron, R. J., Wiegand, J. and Brittenham, G. M. HBED: A Potential Alternative to Deferoxamine for Iron-Chelating Therapy. Blood 1998, 91, 1446-1452]. Briefly, the collections began 4 d prior to the administration of the test drug and continued for an additional 5 d after the drug was given. Iron concentrations were determined by flame atomic absorption spectroscopy as presented in other publications [Bergeron, R. J., Streiff, R. R., Wiegand, J., Vinson, J. R. T., Luchetta, G., Evans, K. M., Peter, H. and Jenny, H.-B. A Comparative Evaluation of Iron Clearance Models. Ann. N.Y. Acad. Sci. 1990, 612, 378-393; Bergeron, R. J., Wiegand, J., Wollenweber, M., McManis, J. S., Algee, S. E. and Ratliff-Thompson, K. Synthesis and Biological Evaluation of Naphthyldesferrithiocin Iron Chelators. J. Med. Chem. 1996, 39, 1575-1581].
as §1, §2

SMILES | Iron-Clearing Efficiency (%) [2] [%] | relative percentages of the iron excreted in the stool and urine [2] | Iron-Clearing Efficiency (%) [3] [%] | other results
COCCOCCOCCOc1cccc(C2=N[C@@](C)(C(=O)O)CS2)c1O [drawing 11] |  |  |  | Iron-Clearing Efficiency (%) ([1]; 48 h sample collection period): 10.6 ± 4.4%; relative percentages of the iron excreted in the bile and urine ([1]; 48 h sample collection period): 95/5
C[C@]1(C(=O)O)CSC(c2ccc(O)cc2O)=N1 [drawing 12] | 16.8 ± 7.2 | 88/12 |  | 
COc1ccc(C2=N[C@@](C)(C(=O)O)CS2)c(O)c1 [drawing 13] | 24.4 ± 10.8 | 91/9 |  | 
COc1ccc(O)c(C2=N[C@@](C)(C(=O)O)CS2)c1 [Compound 5, (S)-4,5-dihydro-2-(2-hydroxy-5-methoxyphenyl)-4-methyl-4-thiazolecarboxylic acid] | 18.9±2.3 |  | 6.3±1.2 | 
COc1ccc(O)c(C2=N[C@@](C)(C(=O)O)CS2)c1 [drawing 7] |  |  | 6.3 ± 1.2 | relative percentages of the iron excreted in the bile and urine [3]: 95/5
COCCOCCOCCOc1cccc(C2=N[C@@](C)(C(=O)O)CS2)c1O [drawing 20] |  |  |  | Iron-Clearing Efficiency (%) [4]: 24.5 ± 7.6%; relative percentages of the iron excreted in the stool and urine [4]: 72/28
C[C@]1(C(=O)O)CSC(c2cc(O)ccc2O)=N1 [drawing 15] | 12.6 ± 3.0 | 88/12 |  | 
COCCOCCOCCOc1ccc(O)c(C2=N[C@@](C)(C(=O)O)CS2)c1 [drawing 17] |  |  |  | Iron-Clearing Efficiency (%) [4]: 8.1 ± 2.8%; relative percentages of the iron excreted in the stool and urine [4]: 56/44
COCCOCCOCCOc1ccc(C2=N[C@@](C)(C(=O)O)CS2)c(O)c1 [drawing 14] | 25.4 ± 7.4 | 96/4 |  | 
C[C@]1(C(=O)O)CSC(c2cc(O)ccc2O)=N1 [Compound 4, (S)-2-(2,5-dihydroxyphenyl)-4,5-dihydro-4-methyl-4-thiazolecarboxylic acid] | 12.6±3.0 |  | 1.0±0.9 | 
COc1cccc(C2=N[C@@](C)(C(=O)O)CS2)c1O [drawing 19] | 22.5 ± 7.1 | 91/9 |  | 
COc1cccc(C2=N[C@@](C)(C(=O)O)CS2)c1O [drawing 10] |  |  |  | Iron-Clearing Efficiency (%) ([1]; 48 h sample collection period): 12.4 ± 3.5%; relative percentages of the iron excreted in the bile and urine ([1]; 48 h sample collection period): 99/1
COc1ccc(O)c(C2=N[C@@](C)(C(=O)O)CS2)c1 [drawing 16] | 18.9 ± 2.3 | 94/6 |  | 
COCCOCCOCCOc1ccc(C2=N[C@@](C)(C(=O)O)CS2)c(O)c1 [drawing 5] |  |  | 5.5 ± 1.9 | relative percentages of the iron excreted in the bile and urine [3]: 90/10
COc1cccc(C2=N[C@@](C)(C(=O)O)CS2)c1O [Compound 8] | 22.5±7.1 |  |  | Iron-Clearing Efficiency (%) ([1]; 48 h sample collection period): 12.4±3.5%
COc1ccc(C2=N[C@@](C)(C(=O)O)CS2)c(O)c1 [drawing 4] |  |  | 6.6 ± 2.8 | relative percentages of the iron excreted in the bile and urine [3]: 98/2
C[C@]1(C(=O)O)CSC(c2cccc(O)c2O)=N1 [drawing 18] | 23.1 ± 5.9 | 83/17 |  | 
C[C@]1(C(=O)O)CSC(c2ccc(O)cc2O)=N1 [drawing 3] |  |  | 1.1 ± 0.8 | relative percentages of the iron excreted in the bile and urine [3]: 100/0
COCCOCCOCCOc1ccc(O)c(C2=N[C@@](C)(C(=O)O)CS2)c1 [drawing 8] |  |  |  | Iron-Clearing Efficiency (%) [1]: 8.0 ± 1.8%; relative percentages of the iron excreted in the bile and urine [1]: 98/2
C[C@]1(C(=O)O)CSC(c2cccc(O)c2O)=N1 [drawing 9] |  |  |  | Iron-Clearing Efficiency (%) [1]: 4.6 ± 0.9%; relative percentages of the iron excreted in the bile and urine [1]: 98/2
C[C@]1(C(=O)O)CSC(c2cc(O)ccc2O)=N1 [drawing 6] |  |  | 1.0 ± 0.9 | relative percentages of the iron excreted in the bile and urine [3]: 99/1
